Patent publication US5461046A, “1-,2-,3-,4-,5-,6-,7-,8-, and/or 9-substituted dibenzoxazepine compounds, pharmaceutical compositions and methods for treating pain” (G. D. Searle & Co., priority 1993, dated 1995)
Read-outs that look alike come from different tables or passages of the source.

Assays:
[1] = test system: phenylbenzoquinone (PBQ)-induced writhing in mice; assay: Writhing Assay (phenylbenzoquinone-induced writhing, analgesia); assay type: in vivo, Charles River male albino mice; conditions: for responders at 30 mg/kg: Mus musculus, 25 min, 25 min before PBQ i.p., number of mice out of ten with analgesia
Description: The Writhing Assay is one of the most widely-used experimental procedures for measuring the analgesic activity of different narcotic and nonnarcotic analgesic agents, and involves the continuous, chemically-induced pain of visceral origin to an animal, such as a mouse or rat. [Gyires et al., Arch. int. Pharmacodyn, 267, 131-140 (1984); C. Vander Wende et al., Fed. Proc., 15, 494 (1956); Koster et al., Fed. Proc., 18, 412 (1959); and Witken et al., J. Pharmacol. exp. Ther., 133, 400-408 (1961).] Chemicals which may be used to induce this pain include phenylbenzoquinone (PBQ) and acetic acid. As a result of the chemical irritation to the animal, a characteristic stretching and writhing of the animal (dorsiflexion of the animal's back, extension of its hindlimbs and the strong contraction of its abdominal musculature) will generally occur. […] Drugs which reduce the number of writhes of the animal appear to restore the normal nociceptive threshold of the animal.
Charles River male albino mice, weighing 20 to 30 grams were used in this assay.
Twenty-five minutes after subcutaneous or intragastric administration to ten mice of 30 mg per kilogram of body weight of a compound of the present invention ("test compound"), […] per 10 g of body weight of a 0.025% w/v solution of PBQ was injected intraperitoneally into each mouse. Ten mice which were given saline in place of a test compound of the invention were used as a control group.
Five minutes later, each mouse was individually placed into a glass beaker for observation, and the number of writhes occurring during the following ten-minute period was counted.
A test compound was considered to have produced analgesia in a mouse if, in accordance with the conditions set forth above, and under the test criteria employed for this assay, after the administration of 30 mg per kilogram of body weight of a compound of the present invention to the mouse, the number of writhes elicited by a mouse injected with PBQ was equal to, or less than, one-half the median number of writhes recorded for the saline-treated control group of mice that day, as described by Taber in "Predictive Value of Analgesic Assays in Mice and Rats," Advances in Biochemical Psychopharmacology, 8, 191 (1974).
The results for the particular compounds of the present invention analyzed in this assay, and discussed in the examples identified below which correspond thereto, are presented in Table 2 hereinbelow under the heading "WRITHING ASSAY." The fractions indicate the number of mice out of ten in which a test compound produced analgesia.

[2] = target: T1, prostaglandin E2-induced contractions of segments of guinea pig ileum (Cavia porcellus, UniProt A0A286XHJ6); assay: Prostaglandin (PGE) Antagonism Assay in guinea pig ileum; conditions: initial concentration 3 micromolar; estimated pA2 (slope -1.0 assumed) or Schild plot pA2
T1 construct: The ilea were then quickly removed from the guinea pigs; from tissue; host or cells: ileum segments of male albino guinea pigs
T1 sequence (A0A286XHJ6 1-405): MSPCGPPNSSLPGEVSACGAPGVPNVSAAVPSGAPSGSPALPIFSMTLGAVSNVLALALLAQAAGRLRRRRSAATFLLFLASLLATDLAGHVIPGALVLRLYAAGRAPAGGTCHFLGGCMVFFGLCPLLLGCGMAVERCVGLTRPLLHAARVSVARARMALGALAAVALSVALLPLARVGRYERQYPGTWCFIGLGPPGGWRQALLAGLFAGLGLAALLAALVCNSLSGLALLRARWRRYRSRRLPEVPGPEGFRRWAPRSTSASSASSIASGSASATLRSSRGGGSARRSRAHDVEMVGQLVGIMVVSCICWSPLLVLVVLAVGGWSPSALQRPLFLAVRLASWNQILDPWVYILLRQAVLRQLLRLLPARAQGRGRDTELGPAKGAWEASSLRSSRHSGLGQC
Method: In order to determine the effectiveness of several of the compounds of the present invention ("test compounds") as prostaglandin E2 antagonists,a prostaglandin antagonism assay was conducted, as described below, to determine the ability of these compounds to inhibit prostaglandin E2 -induced contractions of segments of guinea pig ileum.
Male albino guinea pigs weighing 200 to 500 grams were sacrificed by cervical dislocation. The ilea were then quickly removed from the guinea pigs and placed in a modified Tyrode solution, a solution which is known to those skilled in the art, containing one-half of the usual amount of magnesium ions.
Segments of ileum about 2 cm long were then cut and mounted in a 10-mL tissue bath containing the modified Tyrode solution. The solution was maintained at 37° C. and aerated with a gaseous mixture of 95% oxygen and 5% carbon dioxide. Data for a control prostaglandin E2 dose response curve plotting concentration of prostaglandin E2 versus the intensity of contractions, detected isotonically, was then obtained by experimentally adjusting the dose of the prostaglandin E2 being injected into the tissue bath, in a manner known by those of skill in the art.
Solutions or suspensions containing an initial concentration (3 micromolar) of a test compound in modified Tyrode solution ("test solutions/suspensions") were then separately substituted for the control bath solution. Each test solution/suspension was then kept in constant contact with the ileum tissue, except for brief periods to drain the bath in preparation for rinsing with fresh test solution/suspension. A second prostaglandin E2 dose response curve was then generated for prostaglandin E2 in the presence of a test compound.
A dose ratio of EC50 doses was then calculated from the results of each test in a manner known by those of skill in the art. A test compound was determined to be "active" if the initial concentration used yielded at least a two-fold shift (dose ratio greater than or equal to 2) in the dose response curve for prostaglandin E2.
The compounds of the present invention which were tested in this assay, and for which results are presented in Table 2, correspond to the particular examples specified in Table 2.

[3] = test system: stimulant actions of prostaglandins on isolated smooth muscle preparations; conditions: cited from earlier work
[4] = test system: micturition reflex in rats; conditions: urethane-anesthetized rats; cited from earlier work
[5] = ip, 30 mg per kg i.g., read-out: WRITHING ASSAY Number Out of Ten I.G. (converted)
[6] = sc, 30 mg per kg s.c., read-out: WRITHING ASSAY Number Out of Ten S.C.

Compound	Kb [2] [nM]	responders at 30 mg/kg [1, 5] [%]	responders at 30 mg/kg [1, 6] [%]	potency in the Writhing Assay (in words) ([1]; 30 mg per kg s.c. or i.g.)	inhibition of stimulant actions of prostaglandins [3]	bladder capacity [4]	voiding efficiency of micturition [4]
CCS(=O)(=O)CCC(=O)NNC(=O)N1Cc2ccccc2Oc2ccc(C)cc21 [Example 17, 8-methyldibenz[b,f][1,4]oxazepine-10(11H)-carboxylic acid, 2-[3-(ethylsulfonyl)-1-oxopropyl]hydrazide]	2090	22.2	20	–	–	–	–
CCS(=O)(=O)CCC(=O)NNC(=O)N1Cc2cccc(Cl)c2Oc2ccccc21 [Example 18, 4-chlorodibenz[b,f][1,4]oxazepine-10(11H)-carboxylic acid, 2-[3-(ethylsulfonyl)-1-oxopropyl]hydrazide]	2690	40	40	–	–	–	–
O=C(Cc1ccccc1)NNC(=O)N1Cc2ccccc2Oc2ccc(Cl)cc21 [SC-18637]	–	–	–	–	inhibit the stimulant actions of prostaglandins on isolated smooth muscle preparations	–	–
CC(=O)NNC(=O)N1Cc2ccccc2Oc2ccc(Cl)cc21 [SC-19220]	–	–	–	–	inhibit the stimulant actions of prostaglandins on isolated smooth muscle preparations	increased	reduced

The next lines start with results.

Kb [2] [nM]	Compound	responders at 30 mg/kg [1, 5] [%]	responders at 30 mg/kg [1, 6] [%]	potency in the Writhing Assay (in words) ([1]; 30 mg per kg s.c. or i.g.)	inhibition of stimulant actions of prostaglandins [3]	bladder capacity [4]	voiding efficiency of micturition [4]
2570	CCS(=O)(=O)CCC(=O)NNC(=O)N1Cc2ccccc2Oc2ccc(O)cc21 [Example 19, 8-hydroxydibenz[b,f][1,4]oxazepine-10(11H)-carboxylic acid, 2-[3-(ethylsulfonyl)-1-oxopropyl]hydrazide]	40	30	–	–	–	–
1260	CCS(=O)(=O)CCC(=O)NNC(=O)N1Cc2ccccc2Oc2ccc(C(F)(F)F)cc21 [Example 20, 8-(trifluoromethyl)dibenz[b,f][1,4]oxazepine-10(11H)-carboxylic acid, 2-[3-(ethylsulfonyl)-1-oxopropyl]hydrazide]	60	60	most potent compound of the invention tested in this assay	–	–	–
1050	CCS(=O)(=O)CCC(=O)NNC(=O)N1Cc2ccccc2Oc2ccccc21 [Example 21, Dibenz[b,f][1,4]oxazepine-10(11H)-carboxylic acid, 2-[3-(ethylsulfonyl)-1-oxopropyl]hydrazide]	50	10	–	–	–	–
